Laboratory results reported in a melting point compilation (Tetko et al.; mined from patent text by program, amines drawn as free bases though some values may be those of a salt).

First: C(#Cc1ccccn1)CCc1nc(-c2ccc3ccccc3c2)no1
Second: CCCn1nc(-c2ccc(OC)cc2)c2cccc(-c3ccccc3)c21
The melting point of the first is higher: 76 to 78 °C for the first, 58 to 59 °C for the second.

Compared with `FC(F)(F)c1cccc(CSc2nnc(-c3ncnc4[nH]ccc34)o2)c1`, `C#Cc1cc2c(Nc3ccc(OCc4cccc(F)c4)c(Cl)c3)ncnc2s1` is lower in melting point: 199 to 200 °C for the first, 197 °C for the second.

First: COc1cccc(C(=O)c2[nH]c3cc(Cl)ccc3c2NC(C)=O)c1
Second: O=C(O)c1cccc(N2C(=O)c3ccc([N+](=O)[O-])cc3C2=O)c1
The melting point of the first is lower: 161 to 162 °C for the first, 368 to 370 °C for the second.

Compared with `COc1cc(-c2nc3ccc(OCCN(C)C)cc3n2Cc2ccccc2)cc(OC)c1OC`, `C[C@H](O)CNc1cc(OCc2ccccc2)ccc1C=O` is lower in melting point: 108 °C for the first, 68 to 69 °C for the second.

Compared with `CCOC(=O)CCCOc1ccc(-c2cc(C#N)c(=O)[nH]c2C)cc1`, `CCOC(=O)CCCN(C(=O)c1cccc(C(F)(F)F)c1)c1ccccc1-c1ccccc1` is lower in melting point: 222 to 224 °C for the first, 65 to 67 °C for the second.

Compared with `O=C(O)c1ccc(OC23CC4CC(CC(C4)C2)C3)cc1`, `CNC(=O)c1ccc2c(c1)C(=O)N1CCC[C@@H]1CO2` is lower in melting point: 223 to 226 °C for the first, 186 to 189 °C for the second.

First: CC(CN1CCCC1)N1c2ccccc2Sc2ccc(C(=O)NCCC(C)(C)C)cc21 (racemic)
Second: CN1CCC2(CC1)c1ccccc1Sc1c(O)cccc12
The melting point of the first is lower: 138 °C for the first, 180 to 182 °C for the second.

First: Cn1ccc2c(c(=NO)c1=O)C=CCC2
Second: Cc1ccc(C(c2ccc(C)cc2)C2CN(Cc3ccc(O)cc3)CCC2=O)cc1 (centres undefined)
The melting point of the first is higher: 225 to 226 °C for the first, 156 to 157 °C for the second.

Compared with `OC(c1ccc(C(F)(F)F)cc1)c1ccc(C(F)(F)F)cc1`, `Nc1ccc(Nc2cccc3c2C(=O)c2ccccc2C3=O)cc1` is higher in melting point: 80 °C for the first, 175 to 182 °C for the second.

First: O=[N+]([O-])c1ccccc1-c1oc2ccc(CBr)cc2c1Br
Second: O=C(O)CCCOc1cccc(OCc2ccccc2)c1
The melting point of the first is higher: 118 °C for the first, 76 to 77 °C for the second.

Compared with `CCCc1c(OCCCOc2ccccc2C(=O)O)ccc(C(C)=O)c1O`, `COc1cc(/C=C/C(=O)Nc2ccccc2C(=O)O)ccc1OCC1CCCCC1` is higher in melting point: 105 to 108 °C for the first, 207 to 210 °C for the second.

First: Cc1nc(C)c(Cl)c(NCc2nccc(SCCCCSCc3ccncc3)c2C)n1
Second: Cc1nc(N)nc(N)c1CCCc1cc(Cl)c(Cl)cc1Cl
The melting point of the first is lower: 104 to 106 °C for the first, 215 °C for the second.

Compared with `Cc1cc(-n2ccnc2)c2cccc(OCc3c(Cl)ccc(S(=O)(=O)N4CCC[C@H]4C(=O)NCCO)c3Cl)c2n1`, `COC(=O)CCc1cc2nc(Cl)ccc2n1S(=O)(=O)c1ccc2nc(N)sc2c1` is higher in melting point: 140 °C for the first, 205 to 215 °C for the second.

First: CON=C(C(C)=C(ON)c1ccccc1C(=NOC)C(=O)OC)c1ccc(F)cc1F
Second: Cc1c(F)c(F)c(CNc2ccc(O)c(C(=O)O)c2)c(F)c1F
The melting point of the first is lower: 110 to 119 °C for the first, 212 °C for the second.

First: Cn1c(-c2ccc(-n3cnc4ccccc43)cc2)cnc1[C@H](Cc1ccccn1)N(C=O)c1cc2ccccc2o1
Second: CS(=O)c1ccc(-c2nc3ncccc3[nH]2)cc1 (centres undefined)
The melting point of the first is lower: 152 to 155 °C for the first, 240 to 242 °C for the second.

First: CCOC(=O)c1cc2c(C)c(C(=O)OCC)sc2[nH]1
Second: CCOC(=O)c1c(C(F)(F)F)nc(C(F)(F)Cl)c(C(=O)OC)c1NN(C)C
The melting point of the first is higher: 139 °C for the first, 97 to 98 °C for the second.

First: CCOC(=O)Cc1sc(Sc2cc(C(F)(F)F)ccn2)nc1C
Second: N#CCCCCn1cnc(NC(N)=NCC(F)(F)F)n1
The melting point of the first is lower: 57 to 59 °C for the first, 200 to 201 °C for the second.

First: Nc1cc2c(Nc3ccc(Br)c(Br)c3)ncnc2cn1
Second: CCCN(CCCc1c[nH]c2ccc(F)cc12)C1COc2ccc3ncccc3c2C1 (single isomer, unassigned; (+))
The melting point of the first is higher: 265 to 268 °C for the first, 106 °C for the second.

First: CSc1sc(C(=O)N2CCOCC2)c2c1-c1oncc1C(C)(C)C2
Second: CC1(C)Oc2ccc(C#N)cc2C(n2nc(O)ccc2=O)C1O (centres undefined)
The melting point of the first is lower: 175 to 177 °C for the first, 251 to 252 °C for the second.

Molecule `CC(CCC(O)CO)=Nc1ncnc2c1ncn2C1OC(CO)C(O)C1O` (centres undefined) has a melting point of 102 to 104 °C.
